According to patent US7524851B2 (Robert Bosch Gesellschaft fur Medizinische Forschung (RBMF), priority 2003, dated 2009):

Legend:
[1] = tested on: CD4+ T cells; test: Apoptosis by Nicoletti staining and transmission electron microscopy; format: cell-based, human; settings: 5 days
Protocol: For FACS analysis, apoptotic cells were detected by staining with annexin V and propidium iodide using the Annexin V FITC Apoptosis Detection Kit I (PharMingen) (Atreya et al., Nat. Med. 6:583-588 (2000)). In brief, T cells were washed twice in PBS, and the pellet was resuspended in annexin V binding buffer (PharMingen) at a concentration of 10^6 cells per milliliter. Annexin V FITC and propidium iodide were added (5 ill of each per 10^5 cells). Samples were gently mixed and incubated for 15 minutes at room temperature in the dark before FACS analysis. To verify the results obtained with the annexin V/propidium iodide staining, analysis of T cells displaying DNA fragmentation was also determined by the Nicoletti technique, as described in (Nicoletti et al., J. Immunol. Methods 139:271-279 (1991)). 10^6 T cells were fixed in 70% ethanol, washed once in HBSS, resuspended in 1 ml of HBSS and 1 ml of phosphate citric acid buffer (0.2 mol/l Na2PO4 and 0.004 mol/l citric acid [pH 7.8]), and incubated at room temperature for 5 minutes. After centrifugation, cells were resuspended in 1 ml of HBSS containing 20 μg/ml propidium iodide and 10 U DNase-free RNase A and incubated at room temperature for 30 minutes. Finally, cells were analyzed on a FACScan flow cytometer. Because of the fragmentation of DNA, apoptotic cells appear as hypodiploid in the DNA histogram.

[2] = tested on: primary CD4+ T lymphocytes; test: T cell vitality and clonal expansion (trypan blue); format: cell-based, human
Protocol: Analysis of T cell vitality and clonal expansion: To induce T cell expansion, purified T lymphocytes were stimulated with coated antibodies to CD3 (0.04 μg/ml), soluble antibodies to CD28 (1 μg/ml), and recombinant IL-2 (40 U/ml) for the indicated periods of time. […] Cell viability was assessed by trypan blue (Sigma-Aldrich) staining at the beginning and at the end of the cell culture. The clonal expansion of T cells during cell culture was calculated by the ratio between cell numbers at the beginning and at the end of the cell culture.

[3] = tested on: peripheral blood CD4+ T cells; test: Apoptotic blood T cells from IBD patients receiving azathioprine/6-MP; format: in vivo, human; settings: for number of apoptotic blood T cells: treated IBD patients vs untreated patients before therapy, cells stimulated with CD28 in culture, P<0.05
Source text: FIG. 3. […] (a) LPMCs were isolated and stimulated with anti-CD2/CD28 plus IL-2 in the presence or absence of 6-MP for 5 days followed by FACS analysis. […] Data represent mean values±SEM from eight patients with IBD per group. […] Data are representative of 5-13 patients per group. Magnification, ×20 (bar=100 μm) (ce) and ×40 (bar=50 μm) (f-h). (i) Quantification of the percentage of apoptotic, TUNEL-positive LPMCs in patients with IBD receiving 6-MP as compared with untreated control patients. […] Data are mean values±SEM of 5-13 patients per group.
Isolation of primary CD4^+ T lymphocytes and lamina propria cells: Human peripheral blood mononuclear cells (PBMCs) from healthy volunteers (25-42 years of age) and patients with Crohn's disease (31-65 years of age) were isolated using Ficoll-Hypaque gradients. PBMCs were further purified using CD4 monoclonal antibodies attached to immunomagnetic beads according to the manufacturer's protocol, followed by treatment with Detachabead (Dynal; Oslo, Norway). In some cases, CD4^+ T cells were further separated by negative selection techniques using CD45RO or CD45RA monoclonal antibodies (PharMingen; Heidelberg, Germany) and immunomagnetic beads (Dynal). […] Lamina propria mononuclear cells (LPMCs) from patients with IBD were isolated from gut specimens using a short-term (5-minute) digestion protocol with collagenase V, hyaluronidase (Sigma-Aldrich; St. Louis, Mo., USA), and DNase (Roche; Mannheim, Germany), as recently described in detail in Holtmann et al., Eur. J. Immunol. 32:3142-3151 (2002). […]
For FACS analysis, apoptotic cells were detected by staining with annexin V and propidium iodide using the Annexin V FITC Apoptosis Detection Kit I (PharMingen) (Atreya et al., Nat. Med. 6:583-588 (2000)). […]

[4] = tested on: Rac1; test: Rac1 activation assay (GTP-bound Rac1, PAK pull-down); format: cell-based, human; settings: primary T cells, 3 days
Protocol: Cell lysates were incubated with 10 μg/ml PAK-1 agarose (Rac assays) or 10 μg/mg Raf RBD agarose (Ras assay) for 60 minutes (Rac assays) or 30 minutes (Ras assays) at 4° C. Agarose beads were collected by centrifugation followed by denaturation, boiling of the samples, and SDS-PAGE analysis.

Row | Structure (SMILES) | number of apoptotic CD4+ T cells [1] | clonal expansion of T cells ([2]; day 5) | further increase in percentage of apoptotic cells on additional 6-MP in vitro ([3]; T cells from 6-MP-treated patients) | number of apoptotic blood T cells [3] | CD28 costimulation induced Rac1 activation (GTP-bound Rac1) [4] | clonal expansion of T cells ([2]; earlier time points than day 5)
1 | Sc1ncnc2nc[nH]c12 [6-MP, 6-mercaptopurine] | marked increase | suppresses clonal expansion | did not cause a further significant increase | significant increase | strongly suppressed | 
2 | Cn1cnc([N+](=O)[O-])c1Sc1ncnc2nc[nH]c12 [azathioprine, Azathioprine] | marked increase | reduction in the clonal expansion |  | significant increase | strongly suppressed | no significant changes
